In this experiment the target is T1, TAK1 (Homo sapiens, UniProt O43318).
T1 sequence (O43318 1-606): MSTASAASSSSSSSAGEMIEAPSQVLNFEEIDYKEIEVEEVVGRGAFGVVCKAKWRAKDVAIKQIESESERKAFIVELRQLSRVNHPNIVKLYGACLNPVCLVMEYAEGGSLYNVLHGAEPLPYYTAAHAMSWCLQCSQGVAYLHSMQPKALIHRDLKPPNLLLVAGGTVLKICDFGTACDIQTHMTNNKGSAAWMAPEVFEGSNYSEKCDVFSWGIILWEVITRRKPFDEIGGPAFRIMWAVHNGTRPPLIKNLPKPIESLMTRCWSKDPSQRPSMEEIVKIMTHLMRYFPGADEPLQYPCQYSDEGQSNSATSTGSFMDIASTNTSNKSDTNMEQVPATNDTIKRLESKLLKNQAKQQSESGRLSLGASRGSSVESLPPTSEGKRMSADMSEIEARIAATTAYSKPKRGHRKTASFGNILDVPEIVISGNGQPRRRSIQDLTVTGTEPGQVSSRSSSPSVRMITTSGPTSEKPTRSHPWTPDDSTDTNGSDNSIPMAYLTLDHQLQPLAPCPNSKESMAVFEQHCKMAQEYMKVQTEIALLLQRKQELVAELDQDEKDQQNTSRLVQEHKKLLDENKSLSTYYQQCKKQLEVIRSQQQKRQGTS
T1 sequence (Q15750 1-504 partner): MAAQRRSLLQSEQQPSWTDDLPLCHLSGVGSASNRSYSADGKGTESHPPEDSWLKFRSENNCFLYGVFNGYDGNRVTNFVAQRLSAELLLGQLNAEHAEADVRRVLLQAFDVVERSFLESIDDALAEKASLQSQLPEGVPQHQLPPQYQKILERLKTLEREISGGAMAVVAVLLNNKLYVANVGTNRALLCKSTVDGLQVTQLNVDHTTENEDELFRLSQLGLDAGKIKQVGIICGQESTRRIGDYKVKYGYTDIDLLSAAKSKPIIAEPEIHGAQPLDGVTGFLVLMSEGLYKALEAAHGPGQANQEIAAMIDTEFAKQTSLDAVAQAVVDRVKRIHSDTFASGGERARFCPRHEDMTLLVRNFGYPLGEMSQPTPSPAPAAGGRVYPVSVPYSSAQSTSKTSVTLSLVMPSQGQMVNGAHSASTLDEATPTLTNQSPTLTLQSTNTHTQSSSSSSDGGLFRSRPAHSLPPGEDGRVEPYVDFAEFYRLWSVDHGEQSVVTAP
The experiment is described as follows: TAK1 enzyme inhibition. The experiment is classed as biochemical.

For the molecule `COC(C)(C)CNCc1ccc(-c2cc(NC(N)=O)c(C(N)=O)s2)cc1` [Compound 4, 3-[(aminocarbonyl)amino]-5-(4-{[(2-methoxy-2-methylpropyl)amino]methyl}phenyl)thiophene-2-carboxamide], under “Table 4, read-out: TAK1 pIC50 (enzyme) (converted)”, the IC50 is 0.0631 µM. Also, the “TAK1 pIC50” value (Table 5) was 7.2.

(Values after patent US20090312396A1, “METHODS FOR CANCER TREATMENT USING TAK1 INHIBITORS” (AstraZeneca AB, priority 2006, published 2009).)
